Source: patent US10336757B2, “Treatment of neurodegenerative diseases through inhibition of HSP90” (Sloan-Kettering Institute for Cancer Research, priority 2006, dated 2019)
“And” between values parts separate entries of the source, which are not always exact repeats. Equal values may be shown once.

Columns and labels:
[1] = biological target: P-glycoprotein (Homo sapiens (Human), UniProt P08183); assay: P-glycoprotein substrate status; type: in vitro ADME; conditions: purine scaffold therapeutic
[2] = Assessment of PU-DZ8 brain levels by HPLC/MS/MS; type: in vivo, mouse; conditions: 75 mg/kg i.p.
Procedure: Assessment of PU-DZ8 brain levels. Concentrations of compound were determined and quantitated by a MRM mode using a tandem high-performance liquid chromatography-mass/mass spectrometry (HPLC/MS/MS). A weighed piece of brain was rinsed with saline isotonic solution, dried with gauze and then homogenized in mobile phase (acetonitrile (ACN)/0.1% formic acid=1.2/2.8, v/v). Haloperidol was added as internal standard. PU-DZ8 was extracted in methylene chloride, the organic layer was separated, speedily dried under vacuum and reconstituted in the mobile phase. Compound analysis was performed in the API 4000™ LC/MS/MS (Applied Biosystems) which was coupled with a Shimadzu LC system and a 96-well plate autosampler. A Gemini C18 column (5μ particle size, 50×4.6 mm I.D.) was used for the LC separation. The analyte was eluted under an isocratic condition for 4 min at a flow rate of 0.4 mL/min
One dose of PU-DZ8 (75 mg/kg) was administered intraperitoneally (i.p.) to female mice of 2.5-4 months in age (n=32) and animals were sacrificed in the interval of 0 to 36 h. Both aggregate-free Tau (S1) and insoluble Tau (P3) fractions were prepared from the subcortical and cortical regions of these mice. PU-DZ8 levels in the brain reached 0.35 μg/g (˜700 nM) at 4 h, and the pharmacologically relevant dose was retained for at least 12 h post-administration (0.2 μg/g, ˜390 nM).

[3] = cited from earlier work
[4] = test system: mutant tau (HT7), p35, cdk5, Hsp70; assay: One dose PU-DZ8 in JNPL3 mice, S1 and P3 brain fractions by Western blot; type: in vivo, mouse; conditions: for soluble mutant tau (HT7), S1 fraction, subcortical brain region: from 4 h, maintained up to 36 h
Procedure: JNPL3 female mice 6 months of age were treated IP with the Hsp90 inhibitor PU-DZ8 (75 mg/kg) and sacrificed various times as indicated in FIG. 9. Brains were divided in subcortical and cortical regions and processed using the Greenberg and Davies extraction protocol (77). Sarkosyl soluble fractions (S1) extracted from the subcortical region were analyzed by WB for p35, cdk5, mutant tau (HT7), Hsp90 and Hsp70. Protein bands were normalized to actin and plotted as relative change from untreated mice.
To investigate whether the human TauP301L present in the JNPL3 line of mice is a sensitive target for Hsp90 inhibition, animals were treated with the brain-barrier permeable Hsp90 inhibitor PU-DZ8. This agent is a higher-potency water soluble derivative of PU24FC1 (EC50JNPL3 brain Hsp90=70 nM). One dose of PU-DZ8 (75 mg/kg) was administered intraperitoneally (i.p.) to female mice of 2.5-4 months in age (n=32) and animals were sacrificed in the interval of 0 to 36 h. Both aggregate-free Tau (S1) and insoluble Tau (P3) fractions were prepared from the subcortical and cortical regions of these mice. Human Tau levels were assessed by immunobloting with a human specific anti-Tau antibody (HT-7). […] We next examined in a 4- to 6-month old mouse group (n=15) whether the stability of mTau as present in tau aggregates (P3 fraction) was additionally regulated by Hsp90.
For experiments designed to test the kinetics of mTau and p35 modulation by Hsp90 inhibitors, animals were administered intraperitoneally (i.p.) 75 mg/kg PU-DZ8 in PBS (6% DMSO). Mice were sacrificed by CO2 euthanasia at the indicated times following PU-DZ8 administration. Hemibrains were separated into cortico-limbic (cortex, amygdale and hippocampus) and subcortical (basal ganglia, diencephalon, brain stem and cerebellum) regions, quickly frozen on dry ice and stored at −80° C. and processed. In summary, each brain piece was weighed and homogenized in three volumes of Tris-buffered saline (TBS) containing protease and phosphatase inhibitors (25 mM Tris-HCl, pH 7.4, 150 mM NaCl, 1 mM EDTA, 1 mM EGTA, 5 mM sodium pyrophosphate, 30 mM β-glycerophosphate, 30 mM sodium fluoride, 1 mM phenylmethylsulfonyl fluoride (PMSF)). The homogenates were centrifuged at 27,000 g for 15 min at 4° C. Supernatants were collected as S1 fractions, and the pellets (P1) were re-homogenized in three volumes of salt/sucrose buffer (0.8 M NaCl, 10% sucrose, 10 mM Tris/HCl, pH 7.4, 1 mM EGTA, 1 mM PMSF) and centrifuged as above. The resulting pellets were discarded and the supernatants were incubated with sarkosyl (Sigma, St Louis, Mo., USA; 1% final concentration) for 1 h at 37° C. The sarkosyl mixtures were then centrifuged at 150,000 g for 30 min at 4° C. The supernatants (S2 fraction) were collected, and the pellets (P3) were resuspended in 50 μL 2% SDS in TBS and stored at −80° C. for western blotting. Proteins were analyzed by Western blot.

[5] = test system: mTau expression and phosphorylation, p35; assay: 30 day Hsp90 inhibitor treatment of JNPL3 mice; type: in vivo; conditions: 30 days
Procedure: JNPL3 female mice 6.5 months of age were treated for 30 days, 5 day/week, with the Hsp90 inhibitor PU-DZ8 (FIG. 5) or vehicle, or sacrificed for time zero, n=4/group. Brains were divided in subcortical and cortical regions and processed using the Greenberg and Davies extraction protocol. (77) Sarkosyl soluble fractions (S1) were analyzed by WB for p35 and Hsp70, and for tau epitopes found abnormally hyperphosphorylated in AD brains such as: 5202 and T205 recognized by ATB, T181 by AT270, T231 by AT180. These are putative cdk5/p35 sites. Protein bands were normalized to Hsp90 and plotted as relative units. […].
To investigate whether modulation of mTau could be sustained over a longer Hsp90 inhibitor-treatment period, without being toxic to mice, JNPL3 mice were subjected for 30 days to these agents. Female JNPL3 mice 6.5 months of age (n=10) were administered i.p. vehicle (n=5) or one of the Hsp90 inhibitors, PU24FC1 (200 mg/kg) or PU-DZ8 (75 mg/kg) (n=5), on a daily, five-times per week schedule and animals were sacrificed at 8 h following the last administered dose of inhibitor. […] Furthermore, no visible internal organ damage was detected at sacrifice upon gross inspection. Both S1 and P3 fractions extracted from the subcortical brain region of these mice were analyzed for mTau expression and phosphorylation.

Chain of P-glycoprotein (P08183 whole entry): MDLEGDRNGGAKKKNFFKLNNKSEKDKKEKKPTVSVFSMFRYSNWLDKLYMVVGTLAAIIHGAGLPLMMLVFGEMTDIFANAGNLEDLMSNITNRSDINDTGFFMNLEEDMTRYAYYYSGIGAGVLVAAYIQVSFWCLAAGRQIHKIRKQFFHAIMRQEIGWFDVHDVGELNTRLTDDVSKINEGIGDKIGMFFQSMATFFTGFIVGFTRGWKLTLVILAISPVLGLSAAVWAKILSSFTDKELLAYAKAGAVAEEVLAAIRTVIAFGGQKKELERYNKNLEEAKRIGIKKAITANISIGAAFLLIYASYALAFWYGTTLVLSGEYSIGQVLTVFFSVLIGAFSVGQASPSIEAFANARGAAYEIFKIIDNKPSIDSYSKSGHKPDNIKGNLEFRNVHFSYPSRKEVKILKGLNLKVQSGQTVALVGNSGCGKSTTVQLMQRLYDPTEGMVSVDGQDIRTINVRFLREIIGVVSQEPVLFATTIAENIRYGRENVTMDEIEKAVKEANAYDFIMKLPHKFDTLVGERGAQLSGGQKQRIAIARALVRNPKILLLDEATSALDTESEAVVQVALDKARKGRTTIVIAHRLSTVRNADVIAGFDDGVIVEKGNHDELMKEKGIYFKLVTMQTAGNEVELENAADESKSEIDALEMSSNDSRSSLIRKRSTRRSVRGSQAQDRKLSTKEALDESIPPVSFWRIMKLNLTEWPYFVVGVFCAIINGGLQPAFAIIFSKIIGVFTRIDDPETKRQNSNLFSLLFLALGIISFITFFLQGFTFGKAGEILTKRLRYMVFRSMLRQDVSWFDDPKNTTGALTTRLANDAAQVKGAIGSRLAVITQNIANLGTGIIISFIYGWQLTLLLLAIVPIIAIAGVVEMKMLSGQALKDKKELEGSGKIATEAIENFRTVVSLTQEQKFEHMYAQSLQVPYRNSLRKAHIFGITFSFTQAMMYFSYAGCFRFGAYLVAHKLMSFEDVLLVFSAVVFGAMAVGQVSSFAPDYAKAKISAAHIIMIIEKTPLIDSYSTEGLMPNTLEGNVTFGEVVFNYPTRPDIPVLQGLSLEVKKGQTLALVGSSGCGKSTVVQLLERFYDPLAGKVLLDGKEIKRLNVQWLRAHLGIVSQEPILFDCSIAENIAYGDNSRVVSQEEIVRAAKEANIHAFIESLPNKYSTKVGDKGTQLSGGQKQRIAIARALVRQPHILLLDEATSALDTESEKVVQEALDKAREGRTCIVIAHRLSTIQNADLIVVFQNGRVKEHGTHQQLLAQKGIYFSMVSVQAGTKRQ

Structure (SMILES): CC(C)NCCCn1c(Cc2cc3c(cc2I)OCO3)nc2c(N)nc(F)nc21 [PU-DZ8]
- P-gp substrate [1]: not a substrate of P-pg
- levels in the brain ([2]; 12 h post-administration): 0.2 μg/g and ~390 nM
- levels in the brain ([2]; at 4 h): 0.35 μg/g and ~700 nM
- solubility [3]: water soluble
- chaperone levels (hsp70) ([4]; one dose 75 mg/kg IP): hsp70 increase
- cdk5 expression ([4]; one dose 75 mg/kg i.p.): No significant changes
- expressions of Akt and Raf-1 ([4]; one dose 75 mg/kg i.p.): not altered
- insoluble and hyperphosphorylated Tau (P3 fraction) ([4]; one dose 75 mg/kg i.p., 4- to 6-month old mice): significant reduction
- soluble mutant tau (HT7), S1 fraction, subcortical brain region ([4]; one dose 75 mg/kg i.p.): significant decrease
- soluble mutant tau (HT7), S1 fraction, subcortical brain region ([4]; one dose 75 mg/kg i.p., listed as DZ8): degradation of the mutant protein
- toxicity (animal weight, fur appearance, appetite, posture) ([5]; five-times per week i.p., PU24FC1 200 mg/kg or PU-DZ8 75 mg/kg): No toxicity was observed
- Tau expression and phosphorylation in S1 and P3 fractions ([5]; subcortical brain region): significant reduction in Tau expression and phosphorylation
- p35 in S1 fraction ([5]; subcortical brain region): p35 reduction
